pIC50: −log10 of the molar value.
Columns and labels:
[1] = system: Human breast cancer cell MCF-7; experiment: Cellular antiproliferative assay (MTT, 5 days), MCF-7; format: cell-based; details: Homo sapiens, MCF7, 120 h, MCF-7 cells, 5 days incubation
Protocol: (§1) Human breast cancer cell MCF-7, ovarian cancer cell A2780, human mantle cell lymphoma cell JEKO-1. DMEM medium (Bio-Channel), DMSO (dimethyl sulfoxide), MTT (thiazolyl blue), 0.25% EDTA-Tripsin (tryptic digest), 1×PBS (phosphate buffer, PH7.2), 96-well plate (Corning), fetal bovine serum (FBS), 10,000 U/mL penicillin-G/streptomycin, high-speed cryo-centrifuge (EPPENDORF 5810R), enzyme-linked immunoassay (Tecan Spark).
(§2) • A) Tumor cells were cultured in DMEM (high sugar with 10% FBS and 100 U/mL penicillin-G/streptomycin) at 37° C., 5% CO2 and saturated humidity until 80-90% dense. • B) Removed the culture medium from 10 cm Petri dishes; • C) Rinsed the cells once with 10 ml 1×PBS; • D) Added 4 ml 0.25% EDTA-Tripsin into 37° C., 5% CO2 incubator for trypsin digestion for 5 minutes, transferred to 15 ml centrifuge tube, centrifuged at 200 g for 5 minutes, discarded the supernatant to get cell precipitate; • E) Resuspended with 4 ml DMEM medium, counted and adjust to 50,000 cells/ml. • F) Added cell suspension to 96-well plate with 100 μL per well volume and incubated overnight at 37° C., 5% CO2 incubator.
(§3) • A) Preparation of gradient dilution solution of the tested compound: the test compound was configured into 1 mM reservoir solution.
(§4) • A) Taking the cell culture plate and adding 10 μL of 5 mg/ml MTT in the biosafety cabinet; • B) Putting the cell culture plate back into the incubator and continued incubation for 3 hours; • C) Taking the cell culture plate and removing the culture medium, adding 100 μL isopropanol (containing 0.4 mM HCl, 0.1% NP-40), and shaking the bed at room temperature for 30 min; and • D) Determining the absorbance value by selecting 570 nm on a TECAN enzyme-linked immunoassay detector.
(§5) The % Cell Viability was calculated using the following formula:
(§6) [formula] • Lum_HC: 0.1% DMSO control cell reading • Lum_Sample: cell readings with compound added • Lum_LC: Blank medium reading

[2] = system: ovarian cancer cell A2780; experiment: Cellular antiproliferative assay (MTT, 5 days), A2780; format: cell-based, human; details: Homo sapiens, 120 h, A2780 cells, 5 days incubation
Protocol: as §1, §2, §3, §4, §5, §6

[3] = system: human mantle cell lymphoma cell JEKO-1; experiment: Cellular antiproliferative assay (MTT, 5 days), JEKO-1; format: cell-based; details: Homo sapiens, 120 h, JEKO-1 cells, 5 days incubation
Protocol: as §1, §2, §3, §4, §5, §6

CDK4/CycD1 = CDK4/CycD1 (Homo sapiens, UniProt P11802); experiment: Kinase activity test (mobility shift assay, EZ Reader), CDK4
Protocol: The tested compounds were subjected to CDK4 and CDK6 kinase IC50 values test.
• (1) Preparing a 1.3× enzyme solution containing enzyme, substrate and cofactor as shown below. • (2) Adding 15 μL of 1.3× enzyme solution to each well and incubating for 30 min at room temperature. • (3) Starting the reaction by adding 5 μL of 4×ATP solution, with each test well containing the listed components and a final volume of 20 μL. • (4) Incubating for 150 minutes and then stopping the reaction by adding 75 μL of buffer (containing 0.5 M EDTA). • (5) Reading the data from each test well by EZ for analysis.
Percentage inhibition was calculated using the read conversion ratio (CR) according to the formula below:
The wells treated with DMSO were used as positive control (positive control) and the wells without enzyme were used as negative control (negative control).

CDK6/CyclinD3 = CDK6/CyclinD3 (Homo sapiens, UniProt Q00534); experiment: Kinase activity test (mobility shift assay, EZ Reader), CDK6; format: biochemical; details: CDK6/CyclinD3 5.00 nM, ATP 350 μM, FL-Peptide34
[4] = Preclinical rat pharmacokinetic test; format: in vivo; details: male SD rats, gavage (p.o.), 10 mg/kg, plasma; for AUC(0-t) / Cmax / Tmax: Sprague-Dawley (SD), rat, po
Protocol: Healthy adult SD rats, male, 6-8 weeks old, weighing 200-300 g. EDTA-Na2 anticoagulant. Analytical balance, animal weight scale, magnetic stirrer, freezing centrifuge, single-channel manual pipette. About 10 mg of the sample to be tested was precisely weighed, the converted 5% DMSO was added to dissolve, and then 10 percent solutol HS-15 and 85% saline were added, ultrasonic treatment was performed, vortex mixed, to obtain the solution having a concentration of 1 mg/mL; freshly prepared before use. Animals were kept in rat cages and fasted (not less than 10 h) the day before the test, but not water fasted; on the day of the test, they were weighed and labeled at the tail. Blank blood was collected before drug administration. Blood was collected from the tail vein. • Route of administration: gavage (p.o.). • Dose: 10 mg/kg • Administration volume: 10 mL/kg • Operation procedure: Hold the rat with the left hand with anti-biting gloves, made it stand upright, extent the 16-gauge gavage needle from the throat in the mouth, and then injected the drug into the stomach when there was no obvious resistance. Before and 0.5 […] and 24 h after the administration of the drug, 0.1 ml of whole blood from the test animal was collected in EDTA-Na2 anticoagulant tubes, which was mixed upside down for 3-4 times and then centrifuged at 10,000 g for 5 min at 4° C. to isolate the plasma, which was stored at -80° C. for testing. Blood was collected from the tail vein. […] Pipetted 25 μL of rat blank plasma in a centrifuge tube respectively, added 25 μL of prepared standard series solution (prepared in methanol), then added 200 μL of internal standard solution (prepared in methanol), vortexed and mixed for 2 min, centrifuged at 4° C., 10,000 g for 10 min. Unknown plasma samples treatment: 25 μL of rat plasma containing drug was aspirated, 25 μL of methanol and 200 μL of internal standard solution were added sequentially, vortexed and mixed for 2 min, and then centrifuged at 4° C. and 10,000 g for 10 min. The supernatant was extracted for LC/MS/MS detection. Shimadzu liquid phase and Triple Quad TM 6500+AB mass spectrometry were utilized to establish a quantitative assay for the compounds to be tested. The pro-drug concentration in plasma was determined. The blood drug concentration-time curves were plotted, and the main pharmacokinetic parameters were calculated using the non-compartment model in winnonlin Phoenix software, and the detailed data were shown in Table 3.

CDK6/CyclinD3, sequence (Q00534 whole entry, species assumed): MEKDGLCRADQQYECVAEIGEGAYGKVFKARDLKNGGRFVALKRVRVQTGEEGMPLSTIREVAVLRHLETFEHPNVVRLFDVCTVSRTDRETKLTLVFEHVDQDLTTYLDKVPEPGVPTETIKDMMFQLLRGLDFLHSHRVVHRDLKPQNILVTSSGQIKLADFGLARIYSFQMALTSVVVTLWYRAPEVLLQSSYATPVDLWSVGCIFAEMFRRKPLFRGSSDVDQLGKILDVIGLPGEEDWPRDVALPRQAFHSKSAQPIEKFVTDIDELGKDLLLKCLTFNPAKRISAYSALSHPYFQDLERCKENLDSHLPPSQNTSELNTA
CDK6/CyclinD3, sequence (P30281 whole entry partner, species assumed): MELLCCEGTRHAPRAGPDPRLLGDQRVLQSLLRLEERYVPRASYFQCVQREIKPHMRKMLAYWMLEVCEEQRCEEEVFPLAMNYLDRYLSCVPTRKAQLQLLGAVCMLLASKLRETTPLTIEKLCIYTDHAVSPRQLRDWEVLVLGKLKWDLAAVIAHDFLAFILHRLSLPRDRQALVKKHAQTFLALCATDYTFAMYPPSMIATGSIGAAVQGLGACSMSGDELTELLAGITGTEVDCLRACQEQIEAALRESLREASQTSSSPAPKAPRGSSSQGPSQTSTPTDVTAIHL
CDK4/CycD1, sequence (P11802 whole entry, species assumed): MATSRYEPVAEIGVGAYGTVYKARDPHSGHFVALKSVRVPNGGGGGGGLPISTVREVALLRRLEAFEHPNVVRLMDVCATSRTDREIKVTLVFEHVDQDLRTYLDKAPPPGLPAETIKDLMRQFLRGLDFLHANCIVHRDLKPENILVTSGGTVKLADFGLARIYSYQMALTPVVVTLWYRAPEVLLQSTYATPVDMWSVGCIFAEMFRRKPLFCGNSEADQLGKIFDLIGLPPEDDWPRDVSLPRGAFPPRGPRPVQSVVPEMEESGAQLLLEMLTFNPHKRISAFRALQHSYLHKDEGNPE
CDK4/CycD1, sequence (P24385 whole entry partner, species assumed): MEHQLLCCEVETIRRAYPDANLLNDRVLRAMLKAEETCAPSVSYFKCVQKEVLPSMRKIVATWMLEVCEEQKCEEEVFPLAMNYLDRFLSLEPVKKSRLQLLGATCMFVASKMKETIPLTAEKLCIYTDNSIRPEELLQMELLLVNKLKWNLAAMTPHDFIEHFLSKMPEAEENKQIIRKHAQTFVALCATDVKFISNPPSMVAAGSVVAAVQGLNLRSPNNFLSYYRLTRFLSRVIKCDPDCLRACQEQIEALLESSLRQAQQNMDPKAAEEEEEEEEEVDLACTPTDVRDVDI

Compound | pIC50 [1] | pIC50 [2] | pIC50 [3] | pIC50 (CDK4/CycD1) | pIC50 (CDK6/CyclinD3) | AUC(0-t) [4] [ng·h/mL] | Cmax [4] [ng/mL] | Tmax [4] [h] | HL— [4] [h]
CC(C)N1CCOc2c(F)cc(-c3nc(N[C@@H]4CCOC[C@H]4O)ncc3Cl)cc21 [TA-1] | ≥ 6.30 | ≥ 6.30 | ≥ 6.30 | 9.07 | 7.63 |  |  |  | 
CC(C)N1C(=O)COc2c(F)cc(-c3nc(N[C@@H]4CCOC[C@H]4O)ncc3Cl)cc21 [TA-2, 6-(5-chloro-2-(((3S,4R)-3-hydroxytetrahydro-2H-pyran-4-yl)amino)pyrimidin-4-yl)-8-fluoro-4-isopropyl-2H-benzo[b][1,4]oxazin-3(4H)-one] | 5.70 to 6.30 | ≥ 6.30 | ≥ 6.30 | 7.37 | 6.96 |  |  |  | 
CC(C)N1CCOc2c(F)cc(-c3ccnc(N[C@@H]4CCOC[C@H]4O)n3)cc21 [TA-4, (3S,4R)-4-((4-(8-fluoro-4-isopropyl-3,4-dihydro-2H-benzo[b][1,4]oxazin-6-yl)pyrimidin-2-yl)amino)tetrahydro-2H-pyran-3-ol] | ≥ 6.30 | ≥ 6.30 | ≥ 6.30 | 7.98 | 6.94 |  |  |  | 
CC(C)N1CCOc2c(F)cc(-c3nc(N[C@@H]4CCOC[C@H]4O)ncc3F)cc21 [TA-5, (3S,4R)-4-((5-fluoro-4-(8-fluoro-4-isopropyl-3,4-dihydro-2H-benzo[b][1,4]oxazin-6-yl)pyrimidin-2-yl)amino)tetrahydro-2H-pyran-3-ol] | ≥ 6.30 | ≥ 6.30 | ≥ 6.30 | 8.51 | 7.52 |  |  |  | 
CC(C)N1CCOc2c(F)cc(-c3nc(NC4CCN(S(C)(=O)=O)CC4)ncc3F)cc21 [TA-6, 5-fluoro-4-(8-fluoro-4-isopropyl-3,4-dihydro-2H-benzo[b][1,4]oxazin-6-yl)-N-(1-(methylsulfonyl)piperidin-4-yl)pyrimidin-2-amine] | ≥ 6.30 | ≥ 6.30 | ≥ 6.30 | 8.37 | 7.86 |  |  |  | 
CC(C)N1CCOc2c(F)cc(-c3nc(NC4CCCC(C(=O)N(C)C)C4)ncc3F)cc21 (stereo not shown) [TA-7, 3-((5-fluoro-4-(8-fluoro-4-isopropyl-3,4-dihydro-2H-benzo[b][1,4]oxazin-6-yl)pyrimidin-2-yl)amino)-N,N-dimethylcyclohexane-1-carboxamide] | ≥ 6.30 | ≥ 6.30 | ≥ 6.30 | 7.75 | < 6.30 |  |  |  | 
CC(C)N1CCOc2c(F)cc(-c3nc(NC4CCN(S(C)(=O)=O)CC4)ncc3Cl)cc21 [TA-11, 5-chloro-4-(8-fluoro-4-isopropyl-3,4-dihydro-2H-benzo[b][1,4]oxazin-6-yl)-N-(1-(methylsulfonyl)piperidin-4-yl)pyrimidin-2-amine] | ≥ 6.30 | ≥ 6.30 | ≥ 6.30 | 8.14 | 7.61 |  |  |  | 
CC(=O)N1CCC[C@@H](Nc2ncc(Cl)c(-c3cc(F)c4c(c3)N(C(C)C)CCO4)n2)C1 [TA-16, (R)-1-(3-((5-chloro-4-(8-fluoro-4-isopropyl-3,4-dihydro-2H-benzo[b][1,4]oxazin-6-yl)pyrimidin-2-yl)amino)piperidin-1-yl)ethan-1-one] |  |  |  | 7.81 | 7.00 |  |  |  | 
CC(C)N1CCOc2c(F)cc(-c3nc(N[C@@H]4CCC[C@H](NS(C)(=O)=O)C4)ncc3Cl)cc21 [TA-17] |  |  |  | 7.64 | 7.08 |  |  |  | 
CC(C)C(=O)N(c1cc(F)cc(-c2nc(N[C@@H]3CCOC[C@H]3O)ncc2Cl)c1)C(C)C [TA-20] |  |  |  | 6.97 | 6.50 |  |  |  | 
CC(C)c1c(C(C)(C)O)nc2ccc(-c3nc(N[C@@H]4CCOC[C@H]4O)ncc3Cl)cn12 [TA-25, (3S,4R)-4-((5-chloro-4-(2-(2-hydroxypropan-2-yl)-3-isopropylimidazo[1,2-a]pyridin-6-yl)pyrimidin-2-yl)amino)tetrahydro-2H-pyran-3-ol] |  |  |  |  |  | 4470 | 611 | 3.33 | 1.69
CC(C)c1c(C(C)(C)O)nc2c(F)cc(-c3nc(N[C@@H]4CCOC[C@H]4O)ncc3Cl)cn12 [TA-27, (3S,4R)-4-((5-chloro-4-(8-fluoro-2-(2-hydroxypropan-2-yl)-3-isopropylimidazo[1,2-a]pyridin-6-yl)pyrimidin-2-yl)amino)tetrahydro-2H-pyran-3-ol] |  |  |  | 7.66 | 6.69 |  |  |  | 
COc1ncc(-c2nc(N[C@@H]3CCOC[C@H]3O)ncc2F)c2c1CCC2 [TA-34, (3S,4R)-4-((5-fluoro-4-(1-methoxy-6,7-dihydro-5H-cyclopenta[c]pyridin-4-yl)pyrimidin-2-yl)amino)tetrahydro-2H-pyran-3-ol] |  |  |  | 6.14 | 5.59 |  |  |  | 
CC1CC(=O)N(C)c2nc3c(F)cc(-c4nc(N[C@@H]5CCOC[C@H]5O)ncc4Cl)cc3n21 (stereo partly drawn) [TA-53, 7-(5-chloro-2-(((3S,4R)-3-hydroxytetrahydro-2H-pyran-4-yl)amino)pyrimidin-4-yl)-9-fluoro-1,4-dimethyl-3,4-dihydrobenzo[4,5]imidazo[1,2-a]pyrimidin-2(1H)-one] |  |  |  |  |  | 3530 | 920 | 1 | 1.77
CC(C)n1c(N2CCOCC2)nc2c(F)cc(-c3nc(N[C@@H]4CCOC[C@H]4O)ncc3Cl)cc21 [TB-12, (3S,4R)-4-((5-chloro-4-(4-fluoro-1-isopropyl-2-morpholino-1H-benzo[d]imidazol-6-yl)pyrimidin-2-yl)amino)tetrahydro-2H-pyran-3-ol] | ≥ 6.30 | ≥ 6.30 | ≥ 6.30 |  |  |  |  |  | 3.14
CC(C)n1c(N2CCOC2=O)nc2c(F)cc(-c3nc(N[C@@H]4CCOC[C@H]4O)ncc3Cl)cc21 [TB-24] |  |  |  |  |  |  |  |  | 3.14
CC(C)n1c(N2CCOC2=O)nc2c(F)cc(-c3nc(N[C@@H]4CCOC[C@H]4O)ncc3C(F)(F)F)cc21 [TB-27] |  |  |  |  |  |  |  |  | 3.69
CCS(=O)(=O)N1CCC(Nc2ncc(Cl)c(-c3cc(F)c4nc(N5CCOC5=O)n(C(C)C)c4c3)n2)CC1 [TB-31] | ≥ 6.30 | ≥ 6.30 | ≥ 6.30 |  |  |  |  |  | 1.34
CN1CCCn2c1nc1c(F)cc(-c3nc(NC4CCN(S(C)(=O)=O)CC4)ncc3Cl)cc12 [TB-43, 5-chloro-4-(9-fluoro-1-methyl-1,2,3,4-tetrahydrobenzo[4,5]imidazo[1,2-a]pyrimidin-7-yl)-N-(1-(methylsulfonyl)piperidin-4-yl)pyrimidin-2-amine] | ≥ 6.30 | ≥ 6.30 | ≥ 6.30 | 7.73 | 6.70 |  |  |  | 
C[C@H]1CCN(C)c2nc3c(F)cc(-c4nc(Nc5ccncc5)ncc4Cl)cc3n21 [TB-137, (S)-5-chloro-4-(9-fluoro-1,4-dimethyl-1,2,3,4-tetrahydrobenzo[4,5]imidazo[1,2-a]pyrimidin-7-yl)-N-(pyridin-4-yl)pyrimidin-2-amine] | ≥ 6.30 | ≥ 6.30 | ≥ 6.30 | 7.90 | 7.02 |  |  |  | 
